{"source": "patent US20250296949A1", "about": "“HIGH PURITY NON-ANIMAL DERIVED UDCA” (priority 2021, published 2025)"}
{"assay": "DVS mass change of crystalline 3,7-DKCA salts", "format": "physicochemical", "units": {"DVS mass change 5-95% RH (wt. %)": "wt. %"}}
{"compound": "CC(C)(C)N.C[C@H](CCC(=O)O)[C@H]1CC[C@H]2[C@@H]3C(=O)C[C@@H]4CC(=O)CC[C@]4(C)[C@H]3CC[C@]12C", "note": "[tert-Butylamine salt, tert-butylamine salt of 3,7-DKCA]", "DVS mass change 5-95% RH (wt. %)": 10.89}
{"compound": "CC(C)NC(C)C.C[C@H](CCC(=O)O)[C@H]1CC[C@H]2[C@@H]3C(=O)C[C@@H]4CC(=O)CC[C@]4(C)[C@H]3CC[C@]12C", "note": "[Diisopropylamine salt, diisopropylamine salt of 3,7-DKCA]", "DVS mass change 5-95% RH (wt. %)": 2.53}
{"compound": "C[C@H](CCC(=O)O)[C@H]1CC[C@H]2[C@@H]3C(=O)C[C@@H]4CC(=O)CC[C@]4(C)[C@H]3CC[C@]12C.NCCN", "note": "[Ethylenediamine salt, ethylenediamine salt of 3,7-DKCA]", "DVS mass change 5-95% RH (wt. %)": 19.60}
